How the values were obtained:
Rho kinase 1 (ROCK-I) = Rho kinase 1 (ROCK-I) (Homo sapiens, UniProt Q13464); assay: In vitro Rho kinase inhibitory activity assay (ADP-Glo), Rho kinase 1; format: biochemical; conditions: 10 μM ATP, 25° C., expressed as range of activity
Outline: (§1)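 ADP-Glo luminescence read-out. Enzyme (ROCK1 or ROCK2) + compound 30 min, then 10 μM ATP final, 1 h, 25 °C; 2.5 μM MBP peptide substrate, Tris pH7.5/MgCl2/BSA/DTT buffer, 1% DMSO. IC50 from variable-slope fit (0–100% fixed); Ki via Cheng-Prusoff.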

Rho kinase 2 (ROCK-II) = Rho kinase 2 (ROCK-II) (Homo sapiens, UniProt O75116); assay: In vitro Rho kinase inhibitory activity assay (ADP-Glo), Rho kinase 2; format: biochemical; conditions: 10 μM ATP, 25° C., expressed as range of activity
Outline: as §1

Chain of Rho kinase 1 (ROCK-I) (Q13464 whole entry): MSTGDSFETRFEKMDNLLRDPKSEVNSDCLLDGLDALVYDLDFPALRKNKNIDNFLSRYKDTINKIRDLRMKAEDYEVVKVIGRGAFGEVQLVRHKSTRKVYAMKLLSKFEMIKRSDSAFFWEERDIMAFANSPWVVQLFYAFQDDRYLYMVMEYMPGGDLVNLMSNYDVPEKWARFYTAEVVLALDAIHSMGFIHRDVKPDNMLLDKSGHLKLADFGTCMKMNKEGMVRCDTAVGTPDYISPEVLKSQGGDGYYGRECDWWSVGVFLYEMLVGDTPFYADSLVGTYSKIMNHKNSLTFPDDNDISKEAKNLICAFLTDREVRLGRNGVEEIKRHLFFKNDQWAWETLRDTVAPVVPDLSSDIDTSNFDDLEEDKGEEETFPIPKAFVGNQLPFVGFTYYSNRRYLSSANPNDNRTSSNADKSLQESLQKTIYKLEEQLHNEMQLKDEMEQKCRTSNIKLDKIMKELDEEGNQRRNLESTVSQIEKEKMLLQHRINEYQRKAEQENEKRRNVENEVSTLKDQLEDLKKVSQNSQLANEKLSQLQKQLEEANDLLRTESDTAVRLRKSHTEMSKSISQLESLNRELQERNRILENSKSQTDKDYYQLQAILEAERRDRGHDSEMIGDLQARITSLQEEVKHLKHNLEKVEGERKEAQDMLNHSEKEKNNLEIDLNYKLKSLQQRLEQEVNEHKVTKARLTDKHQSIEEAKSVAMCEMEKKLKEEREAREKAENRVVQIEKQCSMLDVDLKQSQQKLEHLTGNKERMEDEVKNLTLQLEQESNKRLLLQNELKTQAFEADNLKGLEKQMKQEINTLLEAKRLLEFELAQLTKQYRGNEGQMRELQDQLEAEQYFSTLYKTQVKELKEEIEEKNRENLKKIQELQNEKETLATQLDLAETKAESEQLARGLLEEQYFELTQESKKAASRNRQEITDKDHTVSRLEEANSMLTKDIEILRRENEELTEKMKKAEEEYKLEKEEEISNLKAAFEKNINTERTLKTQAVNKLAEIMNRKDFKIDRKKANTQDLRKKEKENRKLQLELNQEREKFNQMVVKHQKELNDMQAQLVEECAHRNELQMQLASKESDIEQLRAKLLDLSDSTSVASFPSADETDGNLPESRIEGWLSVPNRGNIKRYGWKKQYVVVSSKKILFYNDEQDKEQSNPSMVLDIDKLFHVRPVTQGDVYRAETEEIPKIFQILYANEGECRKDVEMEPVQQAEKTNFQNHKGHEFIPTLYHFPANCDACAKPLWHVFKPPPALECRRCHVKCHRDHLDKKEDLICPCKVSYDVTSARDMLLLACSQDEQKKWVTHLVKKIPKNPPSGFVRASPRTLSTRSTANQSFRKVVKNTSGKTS
Chain of Rho kinase 2 (ROCK-II) (O75116 whole entry): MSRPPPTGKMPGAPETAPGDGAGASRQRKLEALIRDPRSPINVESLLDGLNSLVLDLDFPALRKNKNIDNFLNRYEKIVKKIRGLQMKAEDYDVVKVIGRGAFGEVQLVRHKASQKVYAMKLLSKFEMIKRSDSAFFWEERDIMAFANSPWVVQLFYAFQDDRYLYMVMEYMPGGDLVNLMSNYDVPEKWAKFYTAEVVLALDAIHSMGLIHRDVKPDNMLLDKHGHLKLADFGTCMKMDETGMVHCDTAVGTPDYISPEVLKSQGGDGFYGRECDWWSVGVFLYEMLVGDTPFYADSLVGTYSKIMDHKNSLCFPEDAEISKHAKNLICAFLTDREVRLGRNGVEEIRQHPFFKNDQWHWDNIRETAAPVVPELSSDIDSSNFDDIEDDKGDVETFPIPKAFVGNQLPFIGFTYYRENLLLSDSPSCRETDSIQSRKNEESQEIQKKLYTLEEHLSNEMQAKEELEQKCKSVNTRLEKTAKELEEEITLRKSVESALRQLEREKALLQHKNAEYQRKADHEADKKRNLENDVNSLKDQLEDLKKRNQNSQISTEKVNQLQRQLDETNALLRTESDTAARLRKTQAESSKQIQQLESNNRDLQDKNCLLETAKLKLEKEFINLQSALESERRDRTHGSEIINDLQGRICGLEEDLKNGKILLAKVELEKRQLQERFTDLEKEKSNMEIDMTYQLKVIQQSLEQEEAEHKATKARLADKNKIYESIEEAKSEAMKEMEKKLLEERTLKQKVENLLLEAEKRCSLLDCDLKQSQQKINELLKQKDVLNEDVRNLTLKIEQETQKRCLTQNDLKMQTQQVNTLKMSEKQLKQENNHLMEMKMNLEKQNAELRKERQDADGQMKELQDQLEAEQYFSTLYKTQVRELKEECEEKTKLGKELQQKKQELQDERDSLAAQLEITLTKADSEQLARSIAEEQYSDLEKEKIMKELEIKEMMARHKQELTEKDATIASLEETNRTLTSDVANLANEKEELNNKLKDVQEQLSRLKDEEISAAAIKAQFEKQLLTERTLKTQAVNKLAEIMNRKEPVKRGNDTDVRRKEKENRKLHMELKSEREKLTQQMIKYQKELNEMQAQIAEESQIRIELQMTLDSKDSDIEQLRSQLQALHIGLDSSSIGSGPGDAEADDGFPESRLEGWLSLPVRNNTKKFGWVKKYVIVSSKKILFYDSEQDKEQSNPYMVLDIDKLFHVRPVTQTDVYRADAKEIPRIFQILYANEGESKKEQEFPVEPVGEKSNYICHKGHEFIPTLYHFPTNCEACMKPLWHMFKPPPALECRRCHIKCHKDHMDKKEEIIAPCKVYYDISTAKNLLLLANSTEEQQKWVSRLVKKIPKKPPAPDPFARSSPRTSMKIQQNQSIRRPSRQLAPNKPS

Ki (Rho kinase 1 (ROCK-I)) [nM] | Ki (Rho kinase 2 (ROCK-II)) [nM] | Compound
< 3 | < 3 | Cc1c[nH]c2nccc(Oc3ccc(C[C@H](N)C(=O)N4CCC(N(C)C)CC4)cc3F)c12 [Example 14, (S)-2-amino-1-(4-(dimethylamino)piperidin-1-yl)-3-(3-fluoro-4-((3-methyl-1H-pyrrolo[2,3-b]pyridin-4-yl)oxy)phenyl)propan-1-one]
< 3 | < 3 | N[C@@H](Cc1ccc(Oc2ccnc3[nH]cc(Br)c23)c(F)c1)C(=O)NC1CCCCC1 [Example 186, (S)-2-amino-3-(4-((3-bromo-1H-pyrrolo[2,3-b]pyridin-4-yl)oxy)-3-fluorophenyl)-N-cyclohexylpropanamide]
< 3 | < 3 | Cn1cncc1-c1c[nH]c2nccc(Oc3ccc(C[C@H](N)C(=O)N4CCN(Cc5ccccc5)CC4)cc3)c12 [Example 197, (S)-2-amino-1-(4-benzylpiperazin-1-yl)-3-(4-((3-(1-methyl-1H-imidazol-5-yl)-1H-pyrrolo[2,3-b]pyridin-4-yl)oxy)phenyl)propan-1-one]
< 3 | < 3 | N[C@@H](Cc1ccc(Oc2ccnc3[nH]cc(CO)c23)c(F)c1)C(=O)N1CCN(Cc2ccccc2)CC1 [Example 207, (S)-2-amino-1-(4-benzylpiperazin-1-yl)-3-(3-fluoro-4-((3-(hydroxymethyl)-1H-pyrrolo[2,3-b]pyridin-4-yl)oxy)phenyl)propan-1-one]
3 to 30 | 3 to 30 | Cc1c[nH]c2nccc(Oc3ccc(C[C@@H](N)C(=O)Nc4ccccc4)cc3)c12 [Example 138, (R)-2-amino-3-(4-((3-methyl-1H-pyrrolo[2,3-b]pyridin-4-yl)oxy)phenyl)-N-phenylpropanamide]
3 to 30 | 3 to 30 | CN(Cc1ccccc1)C(=O)[C@@H](N)Cc1ccc(Oc2ccnc3[nH]ccc23)cc1 [Example 93, (S)-3-(4-((1H-pyrrolo[2,3-b]pyridin-4-yl)oxy)phenyl)-2-amino-N-benzyl-N-methylpropanamide]
> 30 | > 30 | CC(N)(Cc1ccc(Oc2ccnc3[nH]ccc23)cc1)C(=O)NC1CCOCC1 (stereo not drawn) [Example 151, 3-(4-((1H-pyrrolo[2,3-b]pyridin-4-yl)oxy)phenyl)-2-amino-2-methyl-N-(tetrahydro-2H-pyran-4-yl)propanamide]
< 3 | < 3 | Cc1c[nH]c2nccc(Oc3ccc(C[C@H](N)C(=O)NC4CCOCC4)cc3)c12 [Example 90, (S)-2-amino-3-(4-((3-methyl-1H-pyrrolo[2,3-b]pyridin-4-yl)oxy)phenyl)-N-(tetrahydro-2H-pyran-4-yl)propanamide]
< 3 | < 3 | N[C@@H](Cc1ccc(Oc2ccnc3[nH]cc(C4CC4)c23)cc1)C(=O)NC1CCCCC1 [Example 203, (S)-2-amino-N-cyclohexyl-3-(4-((3-cyclopropyl-1H-pyrrolo[2,3-b]pyridin-4-yl)oxy)phenyl)propanamide]
< 3 | < 3 | Cc1c[nH]c2nccc(Oc3ccc(C[C@H](N)C(=O)N4CCN(Cc5ccnnc5)CC4)cc3F)c12 [Example 153, (S)-2-amino-3-(3-fluoro-4-((3-methyl-1H-pyrrolo[2,3-b]pyridin-4-yl)oxy)phenyl)-1-(4-(pyridazin-4-ylmethyl)piperazin-1-yl)propan-1-one]
3 to 30 | 3 to 30 | Cc1c[nH]c2nccc(Oc3ccc(C[C@@H](N)C(=O)NCc4ccccc4)cc3)c12 [Example 136, (R)-2-amino-N-benzyl-3-(4-((3-methyl-1H-pyrrolo[2,3-b]pyridin-4-yl)oxy)phenyl)propanamide]
< 3 | < 3 | Cc1c[nH]c2nccc(Oc3ccc(CC(N)C(=O)NCc4cccs4)cc3F)c12 (stereo not drawn) [Example 61, 2-amino-3-(3-fluoro-4-((3-methyl-1H-pyrrolo[2,3-b]pyridin-4-yl)oxy)phenyl)-N-(thiophen-2-ylmethyl)propanamide]

Reference: patent US10501461B2, “Tyrosine amide derivatives as Rho-kinase inhibitors” (CHIESI FARMACEUTICI S.P.A., priority 2017, dated 2019)
